Source: PMC12098869, “An mRNA-display derived cyclic peptide scaffold reveals the substrate binding interactions of an N-terminal cysteine oxidase” (Nature Communications, 2025)
Where a SMILES comes first, the peptide text is derived from it. Bridges are numbered along the chain shown (N, C = ends). Where no end group is shown, it is not given here. [ ]: non-standard residue; d: D form. Orn = NCCC[C@H](N)C(=O)O

Legend:
[1] = target: T1, human ADO (Homo sapiens, UniProt Q96SZ5); assay: SPR single-cycle kinetic (SCK) binding of cyclic peptides to ADO; conditions: for KD: Supplementary Fig. 4 series
T1 construct: Full-length human ADO (Uniprot ID: Q96SZ5) was cloned; made in house; host or cells: E. coli Rosetta2(DE3)
T1 sequence (Q96SZ5 1-270): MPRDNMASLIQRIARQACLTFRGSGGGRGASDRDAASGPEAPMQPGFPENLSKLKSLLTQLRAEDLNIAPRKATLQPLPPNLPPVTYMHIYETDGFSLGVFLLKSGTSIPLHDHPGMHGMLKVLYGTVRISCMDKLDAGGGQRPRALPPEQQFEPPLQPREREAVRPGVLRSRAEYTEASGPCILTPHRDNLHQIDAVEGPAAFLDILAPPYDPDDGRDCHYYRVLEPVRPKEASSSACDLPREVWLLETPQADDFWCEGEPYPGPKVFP
Source text: After six cycles, clear enrichment of several CPs was observed by next-generation sequencing. The most enriched CPs (CP1-8, numbered according to their percentage enrichment in the final selection round) were selected for subsequent analysis (Table 1). CP1, 5, 6 and 7 are related in sequence, while CP2, 3, 4, and 8 are unique compositions (Fig. 1b). These CPs were subsequently produced by solid-phase peptide synthesis (SPPS) and analysed by surface plasmon resonance (SPR) using single cycle kinetic (SCK) analysis to confirm and quantify binding to ADO. ADO could interact with each CP to varying degrees (Supplementary Fig. 4, Table 1, Fig. 1dleft).
SPR measurements were made using a Biacore T200 (Cytiva) instrument and data were analysed using the Biacore Insight Evaluation Software. Biotinylated-ADO was immobilised on a Biotin CAP chip (Cytiva) with a target density of ∼2500–3000 RU and peptide/protein substrates were injected over the chip. Experiments were conducted at 4 °C using both multi-cycle (fit using the equilibrium steady state affinity 1:1 binding model) and single-cycle kinetics mode (fit using a 1:1 binding model). A buffer comprising 20 mM HEPES pH 7.5, 500 mM NaCl, 10 mM DTT, and 0.1% (v/v) tween-20 was used as the running buffer at a flow rate of 50 μL/minute.

[2] = target: T2, 2-aminoethanethiol dioxygenase (ADO), full-length human, N-terminally His-tagged and biotinylated … (human, UniProt Q96SZ5 1-270, biotin (biotinylated during expression, 0.2 mM biotin added)); assay: SPR; single cycle kinetic (SCK) analysis, 1:1 binding model; biotinylated ADO immobilised on a Biotin CAP chip (~2500-3000 RU), cyclic peptides injected; 4 °C; 20 mM HEPES pH 7.5, 500 mM NaCl, 10 mM DTT, 0.1% tween-20; 50 μL/minute; conditions: both partners purified
T2 construct: 2-aminoethanethiol dioxygenase (ADO), human, UniProt Q96SZ5, full length; Construct used for RaPID screening and all SPR experiments; No tag cleavage step is described in its purification; also called wild type ADO; biotinylated ADO; source: E. coli Rosetta2(DE3), purified (Ni-NTA, SEC); not shown: biotinylation tag (from the vector pQE80L-Navi), N-terminal, kept
T2 sequence (looked up): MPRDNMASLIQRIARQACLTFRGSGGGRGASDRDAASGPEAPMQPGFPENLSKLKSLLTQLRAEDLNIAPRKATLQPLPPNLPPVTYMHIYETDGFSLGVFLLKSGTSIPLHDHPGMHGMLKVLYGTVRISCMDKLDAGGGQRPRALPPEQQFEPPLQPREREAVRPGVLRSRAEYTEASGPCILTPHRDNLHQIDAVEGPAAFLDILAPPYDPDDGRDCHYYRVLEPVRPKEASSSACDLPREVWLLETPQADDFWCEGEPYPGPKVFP

[3] = target: T2, 2-aminoethanethiol dioxygenase (ADO), …; assay: cell-based or functional assay
[4] = 1:1 binding model, 4 °C, geometric mean of a minimum of three independent measurements (n = 3) with standard error
[5] = Fig. 3c series, geometric mean of a minimum of three independent measurements (n = 3)

CC[C@H](C)[C@@H]1NC(=O)[C@H](Cc2ccc(O)cc2)NC(=O)CSC[C@@H](C(N)=O)NC(=O)[C@H](CCC(N)=O)NC(=O)[C@H](CCCNC(=N)N)NC(=O)[C@H](Cc2c[nH]cn2)NC(=O)[C@H](CO)NC(=O)CNC(=O)[C@H](CC(C)C)NC(=O)[C@H](Cc2c[nH]c3ccccc23)NC(=O)[C@H](Cc2ccccc2)NC(=O)[C@H]([C@@H](C)O)NC(=O)[C@H](CCCCN)NC(=O)[C@H](C(C)C)NC1=O [CP6] ({CH2CO}-YIVKTFWLGSHRQC-NH2; thioether N-14)
Kd [1, 4]: 66.2 ± 0.86 nM
Kd [1, 5]: 51 ± 0.25 nM

CC[C@H](C)[C@@H]1NC(=O)[C@H](Cc2ccc(O)cc2)NC(=O)CSC[C@@H](C(N)=O)NC(=O)[C@H](CCC(N)=O)NC(=O)[C@H](CCCNC(=N)N)NC(=O)[C@H](Cc2c[nH]cn2)NC(=O)[C@H](CO)NC(=O)CNC(=O)[C@H](CCCCNC(=O)[C@@H](N)CO)NC(=O)[C@H](Cc2c[nH]c3ccccc23)NC(=O)[C@H](Cc2ccccc2)NC(=O)[C@H]([C@@H](C)O)NC(=O)[C@H](CCCCN)NC(=O)[C@H](C(C)C)NC1=O [CP6-L8K-Ser] ({CH2CO}-YIVKTFWK(Ser)GSHRQC-NH2; thioether N-14)
Kd [1, 5]: 21 ± 4.9 nM

CC[C@H](C)[C@@H]1NC(=O)[C@H](CCCNC(=N)N)NC(=O)[C@H](Cc2ccc(O)cc2)NC(=O)CSC[C@@H](C(=O)N2CCC[C@H]2C(=O)N[C@@H](CS)C(N)=O)NC(=O)[C@H](CC(C)C)NC(=O)[C@H](C(C)C)NC(=O)[C@H](Cc2c[nH]c3ccccc23)NC(=O)[C@H](CO)NC(=O)[C@H](CCCNC(=N)N)NC(=O)[C@H](Cc2ccccc2)NC(=O)[C@H](C(C)C)NC(=O)[C@H](CCCNC(=N)N)NC(=O)[C@H]([C@@H](C)CC)NC1=O [CP2] ({CH2CO}-YRIIRVFRSWVLCPC-NH2; thioether N-13; N-terminus and C-terminus assumed)
KD ([1]; replicate 1): 6280 nM
KD ([1]; replicate 2): 5190 nM
KD ([1]; replicate 3): 4690 nM

CC[C@H](C)[C@@H]1NC(=O)[C@H](Cc2ccc(O)cc2)NC(=O)CSC[C@@H](C(N)=O)NC(=O)[C@H](CCC(N)=O)NC(=O)[C@H](CCCNC(=N)N)NC(=O)[C@H](Cc2c[nH]cn2)NC(=O)[C@H](CO)NC(=O)CNC(=O)[C@H](CCCNC(=O)[C@@H](N)CO)NC(=O)[C@H](Cc2c[nH]c3ccccc23)NC(=O)[C@H](Cc2ccccc2)NC(=O)[C@H]([C@@H](C)O)NC(=O)[C@H](CCCCN)NC(=O)[C@H](C(C)C)NC1=O [CP6-L8O-Ser] ({CH2CO}-YIVKTFW[Orn](Ser)GSHRQC-NH2; thioether N-14)
Kd [1, 5]: 140 ± 120 nM

CC(C)C[C@@H]1NC(=O)[C@H](Cc2c[nH]c3ccccc23)NC(=O)[C@H]([C@@H](C)O)NC(=O)[C@H]([C@@H](C)O)NC(=O)[C@H](CO)NC(=O)[C@H](C(C)C)NC(=O)[C@H]([C@@H](C)O)NC(=O)[C@H](Cc2ccc(O)cc2)NC(=O)CSC[C@@H](C(N)=O)NC(=O)[C@H](CCC(N)=O)NC(=O)[C@H](CCCNC(=N)N)NC(=O)[C@H](Cc2c[nH]cn2)NC(=O)[C@H]([C@@H](C)O)NC(=O)CNC1=O [CP1] ({CH2CO}-YTVSTTWLGTHRQC-NH2; thioether N-14)
Kd [1, 4]: 35.4 ± 2.11 nM

CC(C)C[C@@H]1NC(=O)[C@H](CCCNC(=N)N)NC(=O)CNC(=O)[C@H](CCCNC(=N)N)NC(=O)[C@H](CCCNC(=N)N)NC(=O)[C@@H]2CCCN2C(=O)[C@H](Cc2ccccc2)NC(=O)CNC(=O)[C@H](CCC(=O)O)NC(=O)[C@H](CC(N)=O)NC(=O)[C@H](CC(C)C)NC(=O)[C@H]([C@@H](C)O)NC(=O)[C@H](Cc2c[nH]c3ccccc23)NC(=O)[C@H](Cc2ccc(O)cc2)NC(=O)CSC[C@@H](C(N)=O)NC1=O [CP3] ({CH2CO}-YWTLNEGFPRRGRLC-NH2; thioether N-15; N-terminus and C-terminus assumed)
KD ([1]; replicate 1): 13500 nM
KD ([1]; replicate 2): 5000 nM
KD ([1]; replicate 3): 6630 nM

CC[C@H](C)[C@@H]1NC(=O)[C@H](Cc2ccc(O)cc2)NC(=O)CSC[C@@H](C(N)=O)NC(=O)[C@H](CCC(N)=O)NC(=O)[C@H](CCCNC(=N)N)NC(=O)[C@H](Cc2c[nH]cn2)NC(=O)[C@H](CO)NC(=O)CNC(=O)[C@H](CCCCNC(=O)[C@@H](N)CS)NC(=O)[C@H](Cc2c[nH]c3ccccc23)NC(=O)[C@H](Cc2ccccc2)NC(=O)[C@H]([C@@H](C)O)NC(=O)[C@H](CCCCN)NC(=O)[C@H](C(C)C)NC1=O [CP6-L8K-Cys] ({CH2CO}-YIVKTFWK(Cys)GSHRQC-NH2; thioether N-14)
Kd ([1]; Fig. 3c / Supplementary Fig. 15 series, replicate 3): 13.6 nM

B1: cyclic peptide CP1 (peptide)
peptide: {CH2CO}-YTVSTTWLGTHRQC
modifications: thioether N-14
notes: cyclic peptide selected against ADO by RaPID mRNA display; Details of synthesis are in the supplementary methods; source: synthetic peptide (solid-phase peptide synthesis)
Kd [2]: 35 nM
IC50 of inhibition of ADO activity (oxidation of RGS5_(2-15), LCMS) [3]: 1720 nM
